# Assay results published in patent publication US11691951B2 (Curtana Pharmaceuticals, Inc., priority 2015, dated 2023).
# Test system: GBM8 cells (human glioblastoma neurosphere cell culture)
# Experiment: GBM8 viability assay (Cell Titer Glo luminescence, 3 days)
# Format: cell-based
# Details: 72 h, 3 days incubation
# Procedure: Example 283: GBM4 and GBM8 Viability Assay
# Cell culture medium was prepared from a NSA proliferation kit (Neurocult) and NeuroCult supplements (Stemcell Tech Cat. #05751) and treated with 20 μL of 10 μg/mL rh EGF, 10 μL of 10 μg/mL rh bFGF and 10 μL of 0.2% Heparin. In this medium, human glioblastoma cells were cultured in ultra-low attachment tissue culture flasks until 1×10^6 cells ml was achieved (GBM4 and GBM8 are distinct neurosphere cell cultures derived from these human patient tissues). GBM4 and GBM8 cells were dissociated and 10 mL of media containing 4000 human glioblastoma cells per 90 uL were transferred to an ultra-low binding 96-well plate and incubated at 37° C. overnight. On the following day, 10 μL of a 1% DMSO solution of test compound in assay medium was added to wells containing the cell suspension and the mixture incubated at 37° C. for 3 days. At this time, the plate was removed from the incubator and allowed to reach room temperature. After about 30 minutes, 50 μL of Cell Titer Glo solution was added to each well and the plate shaken for 1 minute at low speed. After 10 minutes luminescence was recorded using a Tecan Safire2 reader.
# Reduction in luminescence compared to DMSO only control wells was used to determine the percentage inhibition of cell growth. IC50s were calculated using the % inhibition of luminescence for serial dilutions of compounds fitted to a 4-parameter fit within the Prism (San Diego) curve fitting program.
row,Structure (SMILES),IC50 [nM]
1,"Cc1cc(NCCCN)nc(NC(=O)Nc2ccc(F)c(Cl)c2)n1 [Compound 158, 1-(4-((3-aminopropyl)amino)-6-methylpyrimidin-2-yl)-3-(3-chloro-4-fluorophenyl)urea]",< 1000
2,CCCNc1cc(C)nc(NC(=O)Nc2ccc(F)c(Cl)c2)n1 [Compound 165],< 1000
3,Cc1cc(NCC2CCCNC2)nc(NC(=O)Nc2ccc(Cl)c(C(F)(F)F)c2)n1 (stereo not shown) [Compound 66],< 1000
4,Cc1cc(NCC(C)O)nc(NC(=O)Nc2ccccc2)n1 (stereo not shown) [Compound 77],1000 to 10000
5,Cc1cc(NCC(F)(F)CO)nc(NC(=O)Nc2ccccc2)n1 [Compound 79],1000 to 10000
6,"CNCCCNc1cc(C)nc(NC(=O)Nc2ccccc2)n1 [Compound 83, 1-(4-methyl-6-((3-(methylamino)propyl)amino)pyrimidin-2-yl)-3-phenylurea]",1000 to 10000
7,Cc1cc(NCCCCN(C)C)nc(NC(=O)Nc2cccc(C(F)(F)F)c2)n1 [Compound 191],< 1000
8,Cc1cc(NCC(F)(F)CO)nc(NC(=O)Nc2cccc(C(F)(F)F)c2)n1 [Compound 188],< 1000
9,"Cc1cc(NCCCN(C)C)nc(NC(=O)Nc2cccc(Cl)c2)n1 [Compound 45, 1-{2-[3-(3-Chloro-phenyl)ureido]-6-methyl-4-pyrimidin-ylamino}-3-(dimethyl-amino)propane]",< 1000
10,Cc1cc(NCCCCN)nc(NC(=O)Nc2ccc(Cl)c(Cl)c2)n1 [Compound 15],< 1000
11,Cc1cc(NCCC(N)=O)nc(NC(=O)Nc2ccc(F)c(C(F)(F)F)c2)n1 [Compound 116],< 1000
12,Cc1cc(NCCCN)nc(NC(=O)Nc2cccc(C(F)(F)F)c2)n1 [Compound 192],< 1000
13,"Cc1cc(NCCCN(C)C)nc(NC(=O)Nc2ccc(Cl)c(C(F)(F)F)c2)n1 [Compound 47, 1-(2-{3-[4-chloro-3-(trifluoromethyl)phenyl]ureido}-6-methyl-4-pyrimidinylamino)-3-(dimethylamino)propane]",< 1000
14,CNCCCCNc1cc(C)nc(NC(=O)Nc2ccc(Cl)c(C(F)(F)F)c2)n1 [Compound 65],< 1000
15,"Cc1cc(NCCCO)nc(N2CCN(c3ccc(Cl)c(Cl)c3)C2=O)n1 [Compound 35, 3-(3,4-dichlorophenyl)-1-[4-(3-hydroxypropylamino)-6-methyl-2-pyrimidinyl]-2-imidazolidinone]",< 1000
16,"Cc1cc(NCCCO)nc(NC(=O)Nc2ccccc2)n1 [Compound 70, 1-(4-((3-hydroxypropyl)amino)-6-methylpyrimidin-2-yl)-3-phenylurea]",1000 to 10000
17,"Cc1cc(NCCCN(C)C)nc(N2CCN(c3ccc(Cl)c(Cl)c3)C2=O)n1 [Compound 36, 3-(3,4-dichlorophenyl)-1-{4-[3-(dimethylamino)propylamino]-6-methyl-2-pyrimidinyl}-2-imidazolidinone]",< 1000
18,Cc1cc(NCC(O)CO)nc(NC(=O)Nc2cccc(C(F)(F)F)c2)n1 (stereo not shown) [Compound 187],< 1000
19,CCCCNc1cc(C)nc(NC(=O)Nc2ccc(OC)cc2)n1 [Compound 129],< 1000
20,Cc1cc(NCCCCO)nc(NC(=O)Nc2ccc(F)c(Cl)c2)n1 [Compound 163],< 1000
21,COc1cccc(NC(=O)Nc2nc(C)cc(NCCN)n2)c1 [Compound 144],1000 to 10000

row,Structure (SMILES),IC50 [nM]
1,Cc1cc(NCCCCN(C)C)nc(NC(=O)Nc2ccccc2)n1 [Compound 76],1000 to 10000
2,COc1cccc(NC(=O)Nc2nc(C)cc(NCCCCN(C)C)n2)c1 [Compound 148],1000 to 10000
3,CCNc1cc(C)nc(NC(=O)Nc2ccc(F)c(C(F)(F)F)c2)n1 [Compound 117],< 1000
4,Cc1cc(NCCCCO)nc(NC(=O)Nc2ccc(Cl)c(C(F)(F)F)c2)n1 [Compound 50],< 1000
5,Cc1cc(NCCN(C)C)nc(NC(=O)Nc2ccc(Cl)c(Cl)c2)n1 [Compound 11],< 1000
6,Cc1cc(NCC(C)O)nc(NC(=O)Nc2ccc(F)c(Cl)c2)n1 (stereo not shown) [Compound 164],< 1000
7,Cc1cc(NCC(O)CO)nc(NC(=O)Nc2ccc(F)c(C(F)(F)F)c2)n1 (stereo not shown) [Compound 108],< 1000
8,"Cc1cc(NCCN(C)C)nc(NC(=O)Nc2ccc(F)c(C(F)(F)F)c2)n1 [Compound 103, 1-(4-fluoro-3-(trifluoromethyl)phenyl)-3-(4-((2-(dimethylamino)ethyl)amino)-6-methylpyrimidin-2-yl)urea]",< 1000
9,Cc1cc(NCCCCN(C)C)nc(NC(=O)Nc2ccc(F)c(C(F)(F)F)c2)n1 [Compound 104],< 1000
10,"Cc1cc(NCCCN(C)C)nc(NC(=O)Nc2ccc(OC(F)(F)F)cc2)n1 [Compound 85, 1-(4-((3-(dimethylamino)propyl)amino)-6-methylpyrimidin-2-yl)-3-(4-(trifluoromethoxy)phenyl)urea]",< 1000
11,Cc1cc(NCCN)nc(NC(=O)Nc2ccc(Cl)c(C(F)(F)F)c2)n1 [Compound 55],< 1000
12,Cc1cc(NCCO)nc(NC(=O)Nc2ccc(F)c(C(F)(F)F)c2)n1 [Compound 105],< 1000
13,Cc1cc(NCCC(N)=O)nc(NC(=O)Nc2ccc(Cl)c(C(F)(F)F)c2)n1 [Compound 60],< 1000
14,COC(=O)CCNc1cc(C)nc(NC(=O)Nc2ccc(Cl)c(Cl)c2)n1 [Compound 20],< 1000
15,COc1ccc(NC(=O)Nc2nc(C)cc(NCCO)n2)cc1 [Compound 130],< 1000
16,"Cc1cc(NCCN)nc(NC(=O)Nc2ccc(OC(F)(F)F)cc2)n1 [Compound 87, 1-(4-((2-aminoethyl)amino)-6-methylpyrimidin-2-yl)-3-(4-(trifluoromethoxy)phenyl)urea]",< 1000
17,Cc1cc(NCCOCCO)nc(NC(=O)Nc2ccc(Cl)c(C(F)(F)F)c2)n1 [Compound 51],< 1000
18,Cc1cc(NCCCCN)nc(NC(=O)Nc2ccc(C(F)(F)F)cc2)n1 [Compound 197],< 1000
19,Cc1cc(NCCO)nc(NC(=O)Nc2ccc(C(F)(F)F)cc2)n1 [Compound 201],< 1000
20,COc1ccc(NC(=O)Nc2nc(C)cc(NCCCN(C)C)n2)cc1 [Compound 125],< 1000

# Results, then the compound that gave them:
row,IC50 [nM],Structure (SMILES)
1,< 1000,Cc1cccc(NC(=O)Nc2nc(C)cc(NCCN(C)C)n2)c1 [Compound 215]
2,< 1000,Cc1cc(NCC(O)CO)nc(NC(=O)Nc2ccc(C)c(C)c2)n1 (stereo not shown) [Compound 264]
3,1000 to 10000,Cc1cc(NCC2CCCN(C)C2)nc(NC(=O)Nc2ccc(C)c(C)c2)n1 (stereo not shown) [Compound 258]
4,< 1000,Cc1cc(NCC(C)O)nc(NC(=O)Nc2ccc(C)c(C)c2)n1 (stereo not shown) [Compound 262]
5,< 1000,Cc1cccc(NC(=O)Nc2nc(C)cc(NCCN)n2)c1 [Compound 213]
6,< 1000,Cc1cccc(NC(=O)Nc2nc(C)cc(NCC(C)O)n2)c1 (stereo not shown) [Compound 219]
7,< 1000,"CC(=O)NCCNc1cc(C)nc(NC(=O)Nc2ccc(OC(F)(F)F)cc2)n1 [Compound 274, N-(3-((6-methyl-2-(3-(4-(trifluoromethoxy)phenyl)ureido)pyrimidin-4-yl)amino)ethyl)acetamide]"
8,< 1000,CNCCCCNc1cc(C)nc(NC(=O)Nc2ccc(C)c(C)c2)n1 [Compound 270]
9,< 1000,Cc1ccc(NC(=O)Nc2nc(C)cc(NCC(O)CO)n2)cc1 (stereo not shown) [Compound 246]
10,1000 to 10000,Cc1cc(NCCOCCO)nc(NC(=O)Nc2ccc(C)c(C)c2)n1 [Compound 260]
11,1000 to 10000,Cc1cc(NCC2CCCN(C)C2)nc(NC(=O)Nc2ccc(C(F)(F)F)cc2)n1 (stereo not shown) [Compound 206]
12,< 1000,Cc1cc(NCCO)nc(NC(=O)Nc2ccc(C)c(C)c2)n1 [Compound 259]
13,< 1000,Cc1ccc(NC(=O)Nc2nc(C)cc(NCCCc3cnc[nH]3)n2)cc1 [Compound 243]
14,1000 to 10000,"CNCCNc1cc(C)nc(NC(=O)Nc2ccc(C)c(C)c2)n1 [Compound 268, 1-(3,4-dimethylphenyl)-3-(4-methyl-6-((2-(methylamino)ethyl)amino)pyrimidin-2-yl)urea]"
15,< 1000,CNCCCNc1cc(C)nc(NC(=O)Nc2ccc(C)c(C)c2)n1 [Compound 269]
16,< 1000,CCCNc1cc(C)nc(NC(=O)Nc2ccc3c(c2)OCCO3)n1 [Compound 296]
17,< 1000,CNCCCNc1cc(C)nc(NC(=O)Nc2cccc(C)c2)n1 [Compound 230]
18,< 1000,Cc1cc(NCCN)nc(NC(=O)Nc2ccc3c(c2)OCO3)n1 [Compound 283]
19,1000 to 10000,Cc1ccc(NC(=O)Nc2nc(C)cc(NCCOCCO)n2)cc1 [Compound 238]
20,1000 to 10000,"CC(=O)NCCNc1cc(C)nc(NC(=O)Nc2ccc3c(c2)OCO3)n1 [Compound 306, N-{2-[2-(3-benzo[1,3]dioxol-5-yl-ureido)-6-methyl-pyrimidin-4-ylamino]-ethyl}-acetamide]"
21,1000 to 10000,Cc1cccc(NC(=O)Nc2nc(C)cc(NCCCc3ccccn3)n2)c1 [Compound 221]
22,< 1000,Cc1cc(NCCCN)nc(NC(=O)Nc2ccc3c(c2)OCO3)n1 [Compound 282]
23,< 1000,Cc1cc(NCCCN)nc(NC(=O)Nc2ccc(C)c(C)c2)n1 [Compound 253]
24,< 1000,"COc1ccc(NC(=O)Nc2nc(C)cc(NCCCNC(C)=O)n2)cc1 [Compound 275, N-(3-((2-(3-(4-methoxyphenyl)ureido)-6-methylpyrimidin-4-yl)amino)propyl)acetamide]"
25,< 1000,Cc1cccc(NC(=O)Nc2nc(C)cc(NCCCN)n2)c1 [Compound 210]
26,< 1000,CCCNc1cc(C)nc(NC(=O)Nc2ccc(C)c(C)c2)n1 [Compound 261]
